Here are results for 1 compound from ChEMBL document CHEMBL4725277, “Synthetic and therapeutic perspectives of nitrogen containing heterocycles as anti-convulsants” (Bioorg Med Chem, 2020).

Each structure is given as a SMILES string.

The species entered for data set [1] is Mus musculus. Put plainly: Anticonvulsant activity in KunMing mouse assessed as protection against current-induced seizure by maximal electroshock seizure test. In kind it is functional. For orientation: The maximal electroshock test induces tonic seizures with an electrical stimulus.
Data set [2] is described as follows: Protective index, ratio of TD50 for neurotoxicity in KunMing mouse to ED50 for anticonvulsant activity in KunMing mouse assessed as protection against current-induced seizure. The data set is classed as toxicity. As to conditions: in vivo, read-out: PI.
For data set [3], the species on record is Mus musculus. Put plainly: Anticonvulsant activity in KunMing mouse assessed as protection against pentylenetetrazole-induced seizure by maximal electroshock seizure test. In kind it is functional.
Data set [4] is described as follows: Protective index, ratio of TD50 for neurotoxicity in KunMing mouse to ED50 for anticonvulsant activity in KunMing mouse assessed as protection against pentylenetetrazole-induced seizure. In kind it is toxicity. As to conditions: in vivo, read-out: PI.
Data set [5] in a line: Neurotoxicity in KunMing mouse by rotarod test. In kind it is toxicity. The settings on record: KunMing, in vivo, read-out: TD50. A general note: Falling from the rotarod earlier than controls is read as motor impairment.

For `Clc1ccc(C2Cc3nncn3-c3ccsc32)cc1` (stereo not given), the ED50 was found to be 9.5 mg/kg in the data set filed under Mus musculus [1] and 20.5 mg/kg in the data set listed under Mus musculus [3]. In addition, the selectivity ratio in data set [2] came out at 48; in data set [4], 22.2. The TD50 in data set [5] was 456 mg/kg.

The ED50 is the midpoint of the dose-response relation. In general, TD50 refers to the dose at which the toxic effect under study appears in half of the subjects.
